# Reference: patent US6255314A, “Cancerous metastasis inhibitors containing uracil derivatives” (Taiho Charmaceutical Co., Ltd., priority 1996, dated 2001)
# pIC50: −log10 of the molar value. Structures can show the parent of a compound that is named as a salt. Where two headings read alike, the source gives them in different places.
# Columns and labels:
# [1] = molecular target: T1, thymidine phosphorylase obtained from human placenta (Homo sapiens, UniProt P19971); experiment: Test 1 (Thymidine Phosphorylase Inhibiting Effects); assay type: biochemical
# T1 construct: thymidine phosphorylase obtained from human placenta in a highly purified form; from tissue; host or cells: human placenta
# T1 sequence (P19971 11-482): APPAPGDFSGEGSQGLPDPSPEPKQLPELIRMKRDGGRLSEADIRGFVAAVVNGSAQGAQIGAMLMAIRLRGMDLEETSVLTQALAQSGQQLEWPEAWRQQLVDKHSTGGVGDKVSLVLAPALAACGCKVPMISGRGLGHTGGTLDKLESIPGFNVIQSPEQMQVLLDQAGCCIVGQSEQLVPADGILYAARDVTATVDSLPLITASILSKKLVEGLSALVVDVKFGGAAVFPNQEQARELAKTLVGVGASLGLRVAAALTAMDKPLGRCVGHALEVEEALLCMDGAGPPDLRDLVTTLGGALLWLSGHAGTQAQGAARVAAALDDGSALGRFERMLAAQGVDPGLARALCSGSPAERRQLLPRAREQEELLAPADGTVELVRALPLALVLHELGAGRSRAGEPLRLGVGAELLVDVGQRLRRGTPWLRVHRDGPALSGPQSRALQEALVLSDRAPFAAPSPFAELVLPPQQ
# [2] = tested on: human colon cancer strain Co-3; experiment: Test 3 (Metastasis Inhibiting Effects on Liver Metastasis Model); assay type: in vivo, SPF KSN-nu/nu male mouse; human colon cancer; settings: oral; for Number of metastasized mice: 6 courses (5 days on, 2 days off), control 4/6; for Metastasis inhibition rate (%): liver metastasis, 6 courses, vs control
# Method: About 100 mm^3 of human colon cancer strain Co-3 were transplanted to the cecum of each SPF KSN-nu/nu male mouse (seven weeks old). Two weeks after the transplant, a primary carcinoma lesion was removed by surgically cutting off the cecum. […] The administration was conducted for 6 courses, each consisting of administration of 5 straight days followed by a suspension of administration for 2 days. To mice in a control, only 0.5% (w/v) hydroxypropyl methylcellulose solution was orally administered. On the day following the completion of the administration, each mouse was sacrificed and metastasis to the liver was determined based on autopsy.
# [3] = tested on: TMK-1 (human gastric cancer) cells; experiment: Test 2 (Effects of Life Prolongation on Liver Metastasis Model); assay type: in vivo, BALB/c-nu/nu male mice; human gastric cancer cells; settings: oral, everyday for 42 days; for Average # of survival time: control 63.4 days; for ILS (%) (increase of life span): vs control, 120 days observation
# Method: Effects of life prolongation were assessed using a liver metastasis model system consisting of BALB/c-nu/nu male mice (seven weeks old) each of which had been transplanted in the spleen thereof with 1×10^6 cells/mouse of TMK-1 (human gastric cancer) cells.
# Specific experimental procedures were carried out by modifying the method proposed by Morikawa et al. in Cancer Research, 48, 1943-1948 (1988). Described specifically, cells which had been cultured in vitro were collected with 0.25%(w/v) trypsin-0.2%(w/v) EDTA and were then washed with a physiological phosphate buffer. The cells were next counted, followed by dilution to 1×10^6 cells/50 μl. Under anesthetization with 30 mg/kg of "Nembutal", each of the mice was incised at its left abdominal region and the spleen was then pulled out. The cell suspension of 10^6 cells/50 μl which had been prepared above was injected in an amount of 50 μl into the spleen by a syringe fitted with a 28-gauge injection needle. After the mouse was left over for 2 minutes, the blood vessel to the spleen was tied at two positions by ligating clips, respectively, and the spleen was cut off. The excised abdominal region was closed with a suturing stapler. Compound No. 29 of the present invention, in a form dissolved in distilled water, was orally administered everyday for 42 days from the day following the transplant. Using the increase of life span (ILS%) of a control as a reference, an assessment was conducted by observing the mouse for 120 days after the transplant of the cells to confirm its survival. The increase of life span (ILS%) was calculated in accordance with the following formula. [formula]
# [4] = inhibition of [6-^3H]thymine formation from [6-^3H]thymidine, 37° C., 5 minutes, pH 7.4, read-out: IC50
compound,measurement,setting,value
"N#Cc1ccc(O)[nH]c1=O [3-Cyano-2,6-dihydroxypyridine, reference compound]",pIC50,[1]; [4],3.89
"Cc1cn(COCCO)c(=O)[nH]c1=O [Acyclothymidine, reference compound]",pIC50,[1]; [4],< 3.00
"O=c1[nH]c(CN2CCCC2)c(Cl)c(=O)[nH]1 [Compound 1, 5-chloro-6-(1-pyrrolidinylmethyl)uracil]",pIC50,[1]; [4],5.66
"O=c1[nH]c(CN2CCCC2)c(Br)c(=O)[nH]1 [Compound 2, 5-bromo-6-(1-pyrrolidinylmethyl)uracil]",pIC50,[1]; [4],6.29
O=c1[nH]c(CN2CCCC2)c(I)c(=O)[nH]1 [Compound 3],pIC50,[1]; [4],5.89
"O=c1[nH]c(CN2CCC2)c(Cl)c(=O)[nH]1 [Compound 6, 5-chloro-6-(1-azetidinylmethyl)uracil]",pIC50,[1]; [4],5.59
Cn1ccn(Cc2[nH]c(=O)[nH]c(=O)c2Cl)c1=N [Compound 20],pIC50,[1],6.62
"N=C1CCCN1Cc1[nH]c(=O)[nH]c(=O)c1Cl [Compound 29, 5-chloro-6-(1-(2-iminopyrrolidinyl)-methyl)uracil hydrochloride]",Number of metastasized mice,[2]; 18.4 mg/kg/day,2/6
same,Number of metastasized mice,[2]; 36.9 mg/kg/day,1/6
same,Metastasis inhibition rate (%),[2]; 18.4 mg/kg/day,50%
same,Metastasis inhibition rate (%),[2]; 36.9 mg/kg/day,75%
same,Average # of survival time,"[3]; 50 mg/kg/day, N = 8",88.5 days
same,ILS (%) (increase of life span),[3]; 50 mg/kg/day,39.6%
same,Average # of survival time,"[3]; 100 mg/kg/day, N = 9",90.8 days
same,ILS (%) (increase of life span),[3]; 100 mg/kg/day,43.2%
Cc1c(CN2CCCC2=N)[nH]c(=O)[nH]c1=O [Compound 32],pIC50,[1],6.92
"N#Cc1c(CN2CCCC2=N)[nH]c(=O)[nH]c1=O [Compound 33, 5-cyano-6-(1-(2-iminopyrrolidinyl)methyl)uracil]",pIC50,[1],7.77
CN1CCN(Cc2[nH]c(=O)[nH]c(=O)c2Cl)C1=N [Compound 34],pIC50,[1],7.34
"N=C1NCCN1Cc1[nH]c(=O)[nH]c(=O)c1Br [Compound 48, 5-bromo-6-(1-(2-iminoimidazolidinyl)methyl) uracil]",pIC50,[1],7.52
"O=c1[nH]c(CN2C=NCC2)c(Cl)c(=O)[nH]1 [Compound 50, 5-chloro-6-(2-imidazolin-1-ylmethyl)-uracil hydrochloride]",pIC50,[1]; [4],5.92
"O=c1[nH]c(Cn2ccnc2)c(Cl)c(=O)[nH]1 [Compound 51, 5-chloro-6-(1-imidazolylmethyl)uracil hydrochloride]",pIC50,[1]; [4],6.00
"N#Cc1c(CSC(=N)N)[nH]c(=O)[nH]c1=O [Compound 56, 2-(5-cyanouracil-6-ylmethyl)isothiourea hydrochloride]",pIC50,[1]; [4],7.00
CNC(=N)SCc1[nH]c(=O)[nH]c(=O)c1Cl [Compound 57],pIC50,[1]; [4],6.82
"N=C(N)NCc1[nH]c(=O)[nH]c(=O)c1Cl [Compound 68, 5-chloro-6-(1-guanidino)methyluracil hydrochloride]",pIC50,[1]; [4],6.57
"CC(=N)NCc1[nH]c(=O)[nH]c(=O)c1Cl [Compound 73, N-(5-chlorouracil-6-ylmethyl)-acetamidine hydrochloride]",pIC50,[1]; [4],5.82
